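Protocol summary: plate cells (96-well), add compound at 5 concentrations, incubate 48 h, interpolate endpoints linearly. GI50: concentration for 50% inhibition of growth.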 Calls of active or inactive are those of the source. Cut-off read from the data, not from the text of the source: active = GI50 up to about 1.1 µM and inactive = higher.

Some test systems named below: A498; UACC-62; RXF 393; SK-MEL-5; HCT-15; SK-MEL-2; MOLT-4; OVCAR-3; NCI-H522; HOP-92; COLO 205; U-251; NCI-H460; RPMI-8226; SW-620; HL-60; Hs-578T; MDA-MB-231; MCF7.
Test in all cases: inhibition of tumour cell growth, NCI panel, 48 h

As for `O=C(Nc1cccc([N+](=O)[O-])c1)/C(=N\NC(=O)c1ccncc1)c1nc2ccc([N+](=O)[O-])cc2nc1O`, the GI50 in the test with A498 was > 100 µM (inactive); in the test on UACC-62, 58.7 µM (inactive); in the test with RXF 393 it was 60 µM (inactive); in the test on SK-MEL-5, 38 µM (inactive); in the test with HCT-15, 35 µM; in the test on SK-MEL-2 it was > 100 µM (inactive). Moreover, the GI50 in the test on MOLT-4 is 46.9 µM (inactive); in the test on OVCAR-3, > 100 µM (inactive); in the test on NCI-H522, 8.59 µM (inactive); in the test on HOP-92 it was 12.4 µM (inactive); with COLO 205, > 100 µM (inactive); in the test with U-251, 71.3 µM (inactive). In addition, the figures for the GI50 in the test with NCI-H460, in the test on RPMI-8226 and with SW-620 were 54 µM (inactive), 49.4 µM (inactive) and 77.3 µM (inactive), respectively.
In the case of `CC1(C)CC(=O)C2=C(C1)OC1=C(CC(C)(C)CC1=O)C2c1ccccc1Cl` (stereo unspecified), the GI50 with A498 is > 100 µM (inactive); in the test on UACC-62, > 100 µM (inactive); in the test on RXF 393, > 100 µM (inactive); in the test with SK-MEL-5, 43.5 µM (inactive); in the test on HCT-15, greater than 100 µM; in the test with SK-MEL-2 it was > 100 µM (inactive). For the same compound, the GI50 in the test on MOLT-4, with OVCAR-3, with NCI-H522, in the test with HL-60, with Hs-578T and in the test with HOP-92 was > 100 µM (inactive) in each case. Besides, the GI50 in the test on MDA-MB-231 is 89.7 µM (inactive); in the test on COLO 205, > 100 µM (inactive); in the test on U-251, > 100 µM (inactive); in the test on NCI-H460 it was > 100 µM (inactive); in the test with RPMI-8226, > 100 µM (inactive); in the test with SW-620, > 100 µM (inactive).
For `COc1cc(/C=N\NC(=O)C[N+](C)(C)C)cc(OC)c1OC`, the GI50 in the test with UACC-62 is > 10 µM (inactive); in the test with SK-MEL-5, > 10 µM (inactive); in the test with HCT-15, greater than 10 µM; with MOLT-4 it was > 10 µM (inactive); with OVCAR-3, > 10 µM (inactive); in the test on MCF7 it was > 10 µM (inactive). The GI50 with NCI-H522, in the test on HL-60, in the test on Hs-578T, in the test with HOP-92, in the test on MDA-MB-231 and in the test on COLO 205 was > 10 µM (inactive) each time. For the same compound, the GI50 in the test on U-251, with RPMI-8226 and in the test on SW-620 was > 10 µM (inactive) each time.
On to `CCN(CC)/N=C\c1c2ccccc2cc2ccccc12`, for which the GI50 in the test with A498 is 41 µM (inactive); in the test with UACC-62, 53.6 µM (inactive); in the test on RXF 393, 17.7 µM (inactive); in the test with SK-MEL-5 it was 21.8 µM (inactive); in the test on HCT-15, 34.6 µM; with SK-MEL-2 it was 27.9 µM (inactive). Also, the GI50 in the test on MOLT-4 was 21 µM (inactive); in the test with NCI-H522 it was 21 µM (inactive); in the test on HL-60 it was 31.7 µM (inactive); in the test on Hs-578T, 48 µM (inactive); in the test on HOP-92 it was 24.4 µM (inactive); in the test on MDA-MB-231, 24.9 µM (inactive). The GI50 is 23.5 µM (inactive) in the test with COLO 205; 24.5 µM (inactive) in the test on U-251; 30.7 µM (inactive) in the test with NCI-H460; 30.5 µM (inactive) with RPMI-8226; 29 µM (inactive) in the test on SW-620.
Turning to `O=C1c2c(O)cccc2Cc2cc(CO)cc(O)c21`, the GI50 is 4.22 µM (inactive) with A498; 2.09 µM (inactive) in the test on UACC-62; 1.69 µM (inactive) in the test with SK-MEL-5; 3.22 µM in the test on HCT-15; 2.96 µM (inactive) with MOLT-4; 1.66 µM (inactive) in the test on OVCAR-3. In addition, the GI50 is 2.58 µM (inactive) with MCF7; 0.684 µM (active) in the test with HL-60; 1.61 µM (inactive) with HOP-92; 2.3 µM (inactive) in the test on MDA-MB-231; 1.87 µM (inactive) with COLO 205; 1.34 µM (inactive) with U-251. Moreover, the GI50 in the test with NCI-H460 is 0.619 µM (active); in the test with RPMI-8226, 0.743 µM (active); in the test on SW-620, 4.06 µM (inactive).
For `Cn1cnnc1Sc1c([N+](=O)[O-])ncn1C`, the GI50 was > 100 µM (inactive) in the test with A498; > 100 µM (inactive) in the test with UACC-62; > 100 µM (inactive) with SK-MEL-5; 50.6 µM (inactive) with SK-MEL-2; 31 µM (inactive) with MOLT-4; > 100 µM (inactive) in the test on OVCAR-3. For the same compound, the GI50 is 12.6 µM (inactive) in the test on NCI-H522; 26.5 µM (inactive) in the test with HOP-92; 34.3 µM (inactive) with COLO 205; > 100 µM (inactive) in the test with U-251; > 100 µM (inactive) in the test with NCI-H460; 40.5 µM (inactive) in the test on RPMI-8226. Further, the GI50 in the test with SW-620 is 72.4 µM (inactive).
As to `CC1(C)[C@@H](Cn2cc(I)c(=O)[nH]c2=O)CC[C@@]1(C)CO`, the GI50 is > 100 µM (inactive) in the test with A498; > 100 µM (inactive) in the test on UACC-62; > 100 µM (inactive) in the test with RXF 393; 92.9 µM (inactive) in the test with SK-MEL-5; greater than 100 µM with HCT-15; > 100 µM (inactive) in the test on SK-MEL-2. Besides, the GI50 in the test with OVCAR-3, in the test with Hs-578T, in the test with HOP-92, with MDA-MB-231, in the test with COLO 205 and with U-251 was > 100 µM (inactive) in each case. Besides, in the test with SW-620, the GI50 is > 100 µM (inactive).
For `Cc1ccc(/N=N/C(=NNC(=O)c2ccc(C)cc2)c2ccc(N(C)C)cc2)cc1`, the GI50 is 10.8 µM (inactive) in the test with UACC-62; 15.5 µM (inactive) in the test with SK-MEL-5; 28.7 µM in the test on HCT-15; 38.3 µM (inactive) with SK-MEL-2; 33 µM (inactive) in the test on MOLT-4; 17.6 µM (inactive) in the test on OVCAR-3. Moreover, the GI50 is 20 µM (inactive) with MCF7; 20.9 µM (inactive) in the test with NCI-H522; 27.5 µM (inactive) in the test on HL-60; 28.1 µM (inactive) in the test with Hs-578T; 28.6 µM (inactive) in the test on HOP-92; 50.2 µM (inactive) with MDA-MB-231. Further, the GI50 is 12.3 µM (inactive) in the test with COLO 205; 34.4 µM (inactive) with U-251; 25.3 µM (inactive) with NCI-H460; 22.3 µM (inactive) in the test on RPMI-8226; 32.2 µM (inactive) in the test on SW-620.
Regarding `N#CC(C(=O)/C(=N\NC(N)=O)C(C#N)c1ccccc1)c1ccccc1` (stereo unspecified), the GI50 in the test with A498 was > 100 µM (inactive); in the test with UACC-62, > 100 µM (inactive); in the test with RXF 393, > 100 µM (inactive); in the test on HCT-15 it was greater than 100 µM; in the test with SK-MEL-2 it was > 100 µM (inactive); in the test on MOLT-4, > 100 µM (inactive). Moreover, the GI50 in the test on OVCAR-3, in the test on NCI-H522, in the test on HL-60, in the test with HOP-92, in the test on COLO 205 and in the test on U-251 was > 100 µM (inactive) throughout. Besides, the GI50 with NCI-H460, in the test with RPMI-8226 and in the test on SW-620 was > 100 µM (inactive) throughout.
For `COc1ccc(/C=N/n2c(C)n[nH]c2=O)cc1`, the GI50 in the test with A498 was > 100 µM (inactive); in the test on UACC-62, > 100 µM (inactive); in the test with HCT-15, greater than 100 µM; in the test with SK-MEL-2, > 100 µM (inactive); in the test on MOLT-4, > 100 µM (inactive); in the test on OVCAR-3 it was 54.3 µM (inactive). Besides, the GI50 with MCF7, in the test with MDA-MB-231, in the test with COLO 205, in the test with U-251, in the test on NCI-H460 and with RPMI-8226 was > 100 µM (inactive) in each case. Further, the GI50 in the test on SW-620 was > 100 µM (inactive).

(Values after ChEMBL document CHEMBL1201862, “PubChem BioAssay data set” (2004).)
